{
  "source": "patent US20230085307A1",
  "about": "“PYRIDAZINONE COMPOUND AND HERBICIDE” (NISSAN CHEMICAL CORPORATION, priority 2019, published 2023)",
  "key": {"chickweed": {"test_system": "chickweed", "test": "Test Example 4: herbicidal effect by soil treatment (Table 19, symbol P)", "format": "in vivo, common chickweed (Stellaria media)", "details": "amount of applied herbicide 320 g/ha", "outline": "(§1)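 Herbicidal effect was rated 3 weeks after treatment, using the scoring criteria of an earlier test. The compound, formulated as an emulsion and diluted in water to a set herbicide amount, had been sprayed uniformly on soil over freshly sown seeds. Growth took place in a greenhouse at 25° C. to 30° C.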"}, "green foxtail [1]": {"test_system": "green foxtail", "test": "Test Example 4: herbicidal effect by soil treatment (Table 19, symbol G)", "format": "in vivo, green foxtail (Setaria viridis)", "details": "amount of applied herbicide 320 g/ha", "outline": "as §1"}, "wild oat [2]": {"test_system": "wild oat", "test": "Test Example 5: herbicidal effect by foliage application, plastic box (Table 20, symbol I)", "format": "in vivo, wild oat (Avena fatua)", "details": "foliage application", "outline": "(§2)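 Foliar spray test: emulsion formulation diluted in water to a set application rate, sprayed onto 14-day-old plants raised in diluvial soil at 25° C to 30° C under glass. Both herbicidal effect and crop effect rated visually three weeks later.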"}, "windgrass [3]": {"test_system": "windgrass", "test": "Test Example 5: herbicidal effect by foliage application, plastic box (Table 20, symbol L)", "format": "in vivo, windgrass (Apera spica-venti)", "details": "foliage application", "outline": "as §2"}, "Japanese bulrush": {"test_system": "Japanese bulrush", "test": "Test Example 2: herbicidal activity, application during weed generation under submerged conditions (Table 17, symbol B)", "format": "in vivo, Japanese bulrush (Schoenoplectus juncoides)", "details": "AAH 320 g/ha; application during weed generation, submerged conditions", "outline": "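Steps: fill Wagner pots with alluvial soil; add water to give 4 cm depth; sow the species mixed; grow under glass at 25–30° C.; at 1–2 leaves apply water-diluted emulsion formulation to the water surface at a fixed herbicide amount; score after 3 weeks.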"}, "redroot pigweed": {"test_system": "redroot pigweed", "test": "Test Example 5: herbicidal effect by foliage application, plastic box (Table 20, symbol N)", "format": "in vivo, redroot pigweed (Amaranthus retroflexus)", "details": "foliage application", "outline": "as §2"}, "lambsquarters [4]": {"test_system": "lambsquarters", "test": "Test Example 4: herbicidal effect by soil treatment (Table 19, symbol O)", "format": "in vivo, lambsquarters (Chenopodium album)", "details": "amount of applied herbicide 320 g/ha", "outline": "as §1"}, "wild oat [5]": {"test_system": "wild oat", "test": "Test Example 4: herbicidal effect by soil treatment (Table 19, symbol I)", "format": "in vivo, wild oat (Avena fatua)", "details": "amount of applied herbicide 320 g/ha", "outline": "as §1"}, "persian speedwell": {"test_system": "persian speedwell", "test": "Test Example 5: herbicidal effect by foliage application, plastic box (Table 20, symbol R)", "format": "in vivo, Persian speedwell (Veronica persica)", "details": "foliage application", "outline": "as §2"}, "late watergrass": {"test_system": "late watergrass", "test": "Test Example 1: herbicidal activity, application before weed generation under submerged conditions (Table 16, symbol A)", "format": "in vivo, late watergrass (Echinochloa oryzicola)", "details": "amount of applied herbicide 320 g/ha", "outline": "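Submerged Wagner pots (alluvial soil, 4 cm water) sown with weed seeds and planted with 2.5-leaf rice seedlings; emulsifiable concentrate diluted in water applied to water surface on sowing day. Held in greenhouse at 25-30 °C; injury scored 0-5 by herbicidal rate after three weeks.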"}, "windgrass [6]": {"test_system": "windgrass", "test": "Test Example 4: herbicidal effect by soil treatment (Table 19, symbol L)", "format": "in vivo, windgrass (Apera spica-venti)", "details": "amount of applied herbicide 320 g/ha", "outline": "as §1"}, "lambsquarters [7]": {"test_system": "lambsquarters", "test": "Test Example 5: herbicidal effect by foliage application, plastic box (Table 20, symbol O)", "format": "in vivo, lambsquarters (Chenopodium album)", "details": "foliage application", "outline": "as §2"}, "green foxtail [8]": {"test_system": "green foxtail", "test": "Test Example 5: herbicidal effect by foliage application, plastic box (Table 20, symbol G)", "format": "in vivo, green foxtail (Setaria viridis)", "details": "foliage application", "outline": "as §2"}, "Italian ryegrass": {"test_system": "Italian ryegrass", "test": "Test Example 4: herbicidal effect by soil treatment (Table 19, symbol K)", "format": "in vivo, Italian ryegrass (Lolium multiflorum)", "details": "amount of applied herbicide 320 g/ha", "outline": "as §1"}, "Chinese sprangletop": {"test_system": "Chinese sprangletop", "test": "Test Example 3: herbicidal effect by foliage application, Wagner pot (Table 18, symbol D)", "format": "in vivo, chinese sprangletop (Leptochloa chinensis)", "outline": "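Plants were sown in alluvial soil held under 0.1–0.5 cm standing water and grown 14 days in a greenhouse at 25–30 °C. An emulsifiable formulation, water-diluted to the set dose, was then sprayed onto the foliage, and effects were scored three weeks later using previously defined criteria.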"}, "velvetleaf": {"test_system": "velvetleaf", "test": "Test Example 5: herbicidal effect by foliage application, plastic box (Table 20, symbol M)", "format": "in vivo, velvetleaf (Abutilon theophrasti)", "details": "foliage application", "outline": "as §2"}, "barnyard grass": {"test_system": "barnyard grass", "test": "Test Example 4: herbicidal effect by soil treatment (Table 19, symbol H)", "format": "in vivo, barnyard grass (Echinochloa crus-galli)", "details": "amount of applied herbicide 320 g/ha", "outline": "as §1"}, "[9]": {"details": "AAH 320 g/ha, evaluated three weeks after application"}, "[10]": {"details": "320 g/ha, three weeks after application"}},
  "data": [
    {"smiles": "Cc1nn(C)c(=O)c(-c2c(-c3cnccc3C(F)(F)F)sc3ccc(F)cc23)c1O", "note": "[2-387]", "values": [
      {"measurement": "herbicidal effect, P: chickweed", "setting": "chickweed", "value": "4 (Herbicidal rate of 70% or more and less than 90%)"},
      {"measurement": "herbicidal effect, G: green foxtail", "setting": "green foxtail [1]", "value": "3 (Herbicidal rate of 40% or more and less than 70%)"},
      {"measurement": "I: wild oat, herbicidal effect (criteria 0-5)", "setting": "wild oat [2]; [9]", "value": "4 (Herbicidal rate of 70% or more and less than 90%)"},
      {"measurement": "L: windgrass, herbicidal effect (criteria 0-5)", "setting": "windgrass [3]; [9]", "value": "5 (Herbicidal rate of 90% or more (almost completely withered))"},
      {"measurement": "herbicidal effect rating, B: Japanese bulrush", "setting": "Japanese bulrush", "value": "4 (Herbicidal rate of 70% or more and less than 90%)"},
      {"measurement": "N: redroot pigweed, herbicidal effect (criteria 0-5)", "setting": "redroot pigweed; [9]", "value": "5 (Herbicidal rate of 90% or more (almost completely withered))"},
      {"measurement": "herbicidal effect, O: lambsquarters", "setting": "lambsquarters [4]", "value": "4 (Herbicidal rate of 70% or more and less than 90%)"},
      {"measurement": "herbicidal effect, I: wild oat", "setting": "wild oat [5]", "value": "1 (Herbicidal rate of 5% or more and less than 20%)"},
      {"measurement": "R: persian speedwell, herbicidal effect (criteria 0-5)", "setting": "persian speedwell; [9]", "value": "5 (Herbicidal rate of 90% or more (almost completely withered))"},
      {"measurement": "Herbicidal effect, A: late watergrass", "setting": "late watergrass", "value": "3 (Herbicidal rate of 40% or more and less than 70%)"},
      {"measurement": "herbicidal effect, L: windgrass", "setting": "windgrass [6]", "value": "3 (Herbicidal rate of 40% or more and less than 70%)"},
      {"measurement": "O: lambsquarters, herbicidal effect (criteria 0-5)", "setting": "lambsquarters [7]; [9]", "value": "5 (Herbicidal rate of 90% or more (almost completely withered))"},
      {"measurement": "G: green foxtail, herbicidal effect (criteria 0-5)", "setting": "green foxtail [8]; [9]", "value": "3 (Herbicidal rate of 40% or more and less than 70%)"},
      {"measurement": "herbicidal effect, K: Italian ryegrass", "setting": "Italian ryegrass", "value": "4 (Herbicidal rate of 70% or more and less than 90%)"},
      {"measurement": "herbicidal effect on D: Chinese sprangletop", "setting": "Chinese sprangletop; amount of applied herbicide 320 g/ha", "value": "5 (Herbicidal rate of 90% or more (almost completely withered))"},
      {"measurement": "M: velvetleaf, herbicidal effect (criteria 0-5)", "setting": "velvetleaf; [9]", "value": "5 (Herbicidal rate of 90% or more (almost completely withered))"}
    ]},
    {"smiles": "CCCC(=O)Oc1c(C)nn(C)c(=O)c1-c1c(-c2ccccc2)sc2cc(OC)ccc12", "note": "[3-062]", "values": [
      {"measurement": "H: barnyard grass, herbicidal effect grade", "setting": "barnyard grass", "value": "0 (Herbicidal rate of 5% or less (almost no effect))"},
      {"measurement": "P: chickweed, herbicidal effect grade", "setting": "chickweed", "value": "4 (Herbicidal rate of 70% or more and less than 90%)"},
      {"measurement": "I: wild oat, herbicidal effect grade", "setting": "wild oat [2]; [10]", "value": "2 (Herbicidal rate of 20% or more and less than 40%)"},
      {"measurement": "L: windgrass, herbicidal effect grade", "setting": "windgrass [3]; [10]", "value": "0 (Herbicidal rate of 5% or less (almost no effect))"},
      {"measurement": "herbicidal effect rating, B: Japanese bulrush", "setting": "Japanese bulrush", "value": "3 (Herbicidal rate of 40% or more and less than 70%)"},
      {"measurement": "N: redroot pigweed, herbicidal effect grade", "setting": "redroot pigweed; [10]", "value": "2 (Herbicidal rate of 20% or more and less than 40%)"},
      {"measurement": "O: lambsquarters, herbicidal effect grade", "setting": "lambsquarters [4]", "value": "0 (Herbicidal rate of 5% or less (almost no effect))"},
      {"measurement": "I: wild oat, herbicidal effect grade", "setting": "wild oat [5]", "value": "0 (Herbicidal rate of 5% or less (almost no effect))"},
      {"measurement": "R: persian speedwell, herbicidal effect grade", "setting": "persian speedwell; [10]", "value": "3 (Herbicidal rate of 40% or more and less than 70%)"},
      {"measurement": "Herbicidal effect, A: late watergrass", "setting": "late watergrass", "value": "3 (Herbicidal rate of 40% or more and less than 70%)"},
      {"measurement": "L: windgrass, herbicidal effect grade", "setting": "windgrass [6]", "value": "0 (Herbicidal rate of 5% or less (almost no effect))"},
      {"measurement": "O: lambsquarters, herbicidal effect grade", "setting": "lambsquarters [7]; [10]", "value": "2 (Herbicidal rate of 20% or more and less than 40%)"},
      {"measurement": "G: green foxtail, herbicidal effect grade", "setting": "green foxtail [8]; [10]", "value": "0 (Herbicidal rate of 5% or less (almost no effect))"},
      {"measurement": "K: Italian ryegrass, herbicidal effect grade", "setting": "Italian ryegrass", "value": "0 (Herbicidal rate of 5% or less (almost no effect))"},
      {"measurement": "herbicidal effect on Chinese sprangletop (D)", "setting": "Chinese sprangletop; 320 g/ha", "value": "1 (Herbicidal rate of 5% or more and less than 20%)"},
      {"measurement": "M: velvetleaf, herbicidal effect grade", "setting": "velvetleaf; [10]", "value": "3 (Herbicidal rate of 40% or more and less than 70%)"}
    ]}
  ]
}
